Measurements: PubChem BioAssay (NCI)
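A five-concentration, 48-hour dose response in 96-well plates underlies each endpoint, interpolated linearly between surrounding concentrations. GI50 is the concentration that inhibits growth by half. TGI denotes the concentration required for complete inhibition of growth.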

Legend:
Assay in all cases: NCI-60 cell line screen, 48 h
CCRF-CEM leukemia = system: CCRF-CEM leukemia
OVCAR-8 ovarian = system: OVCAR-8 ovarian
MOLT-4 leukemia = system: MOLT-4 leukemia
UACC-257 melanoma = system: UACC-257 melanoma
OVCAR-5 ovarian = system: OVCAR-5 ovarian
EKVX NSCLC = system: EKVX NSCLC
COLO 205 colon = system: COLO 205 colon
KM12 colon = system: KM12 colon
M14 melanoma = system: M14 melanoma
MCF7 breast = system: MCF7 breast
RXF 393 renal = system: RXF 393 renal
SK-MEL-2 melanoma = system: SK-MEL-2 melanoma
IGROV1 ovarian = system: IGROV1 ovarian
A549 NSCLC = system: A549 NSCLC
SF-539 CNS = system: SF-539 CNS
ACHN renal = system: ACHN renal
CAKI-1 renal = system: CAKI-1 renal
SF-268 CNS = system: SF-268 CNS
SR leukemia = system: SR leukemia
HCC-2998 colon = system: HCC-2998 colon
OVCAR-3 ovarian = system: OVCAR-3 ovarian
BT-549 breast = system: BT-549 breast
UO-31 renal = system: UO-31 renal
SK-OV-3 ovarian = system: SK-OV-3 ovarian
U251 CNS = system: U251 CNS
SK-MEL-5 melanoma = system: SK-MEL-5 melanoma
PC-3 prostate = system: PC-3 prostate
SNB-75 CNS = system: SNB-75 CNS
SN12C renal = system: SN12C renal

## O=C(N/N=C/c1ccco1)c1[nH]c2ccc(Br)cc2c1-c1ccccc1
CCRF-CEM leukemia
  TGI: 27100 nM
OVCAR-8 ovarian
  GI50: 162 nM
  TGI: 3230 nM
MOLT-4 leukemia
  GI50: 265 nM
  TGI: 11700 nM
UACC-257 melanoma
  GI50: 437 nM
  TGI: 17300 nM
OVCAR-5 ovarian
  GI50: 320 nM
  TGI: 17600 nM
EKVX NSCLC
  GI50: 1300 nM
  TGI: 27300 nM
COLO 205 colon
  GI50: 226 nM
  TGI: 695 nM
KM12 colon
  GI50: 281 nM
  TGI: 12700 nM
M14 melanoma
  GI50: 165 nM
  TGI: 21900 nM
MCF7 breast
  GI50: 67.3 nM
  TGI: 11100 nM
RXF 393 renal
  GI50: 348 nM
  TGI: 16900 nM
SK-MEL-2 melanoma
  GI50: 302 nM
  TGI: 22400 nM
IGROV1 ovarian
  GI50: 212 nM
  TGI: 12800 nM
A549 NSCLC
  GI50: 191 nM
  TGI: 14300 nM
SF-539 CNS
  GI50: 91 nM
  TGI: 482 nM
ACHN renal
  GI50: 303 nM
  TGI: 14700 nM
CAKI-1 renal
  GI50: 251 nM
  TGI: 16500 nM
SF-268 CNS
  GI50: 975 nM
  TGI: 27900 nM
SR leukemia
  GI50: 52.7 nM
  TGI: 5100 nM
HCC-2998 colon
  GI50: 240 nM
  TGI: 9410 nM
OVCAR-3 ovarian
  GI50: 281 nM
  TGI: 14900 nM
BT-549 breast
  GI50: 220 nM
  TGI: 1190 nM
UO-31 renal
  GI50: 267 nM
  TGI: 15400 nM
SK-OV-3 ovarian
  GI50: 403 nM
  TGI: 16900 nM
U251 CNS
  GI50: 192 nM
  TGI: 11800 nM
SK-MEL-5 melanoma
  GI50: 133 nM
  TGI: 644 nM
PC-3 prostate
  GI50: 309 nM
  TGI: 15900 nM
SNB-75 CNS
  GI50: 177 nM
  TGI: 5770 nM
SN12C renal
  GI50: 201 nM
  TGI: 4530 nM
